Results as given in patent publication US20160090556A1, “PRODUCTS COMPRISING MALODOR REDUCTION MATERIALS” (The Procter & Gamble Company, priority 2014, published 2016).
Where two headings read alike, the source gives them in different places.

Assay: Liquid dish neat product liquid-air partition coefficient
Type: physicochemical
Conditions: for Comment Code: Log of liquid dish neat product liquid-air partition coefficient: code letters K, L
[1] = class code letter within Comment Code

SMILES	Log of liquid dish neat product liquid-air partition coefficient (Comment Code K/L)	Comment Code: Log of liquid dish neat product liquid-air partition coefficient	Log of liquid dish neat product liquid-air partition coefficient (Comment Code K/L) [1]
CC1CC(C)(c2ccccc2)CO1 (stereo not shown) [Material 1006]	K (Log of liquid dish neat product liquid-air partition coefficient greater than or equal to −7)		
CC(C)C1CCC(CO)CC1 (stereo not shown) [Material 133]		K (Log of liquid dish neat product liquid-air partition coefficient greater than or equal to −7)	
CC1=CCC(O)(C(C)C)CC1 (stereo not shown) [Material 791]	K (Log of liquid dish neat product liquid-air partition coefficient greater than or equal to −7)		
C=CCOC(=O)CCC1CCCCC1 [Material 746]	K (Log of liquid dish neat product liquid-air partition coefficient greater than or equal to −7)		
C/C(=C/C#N)CCc1ccccc1 [Material 892]	K (Log of liquid dish neat product liquid-air partition coefficient greater than or equal to −7)		
CC/C=C\C/C=C/CCO [Material 1072]	K (Log of liquid dish neat product liquid-air partition coefficient greater than or equal to −7)		
CCC(C)C(=O)OCCc1ccccc1 (stereo not shown) [Material 954]	K (Log of liquid dish neat product liquid-air partition coefficient greater than or equal to −7)		
CCC(C)(C)C1CCC(O)CC1 (stereo not shown) [Material 995]		K (Log of liquid dish neat product liquid-air partition coefficient greater than or equal to −7)	
CCCCCCCCCC(=O)OCC [Material 397]			K (Log of liquid dish neat product liquid-air partition coefficient greater than or equal to −7)
CC1CCC2(O)C(C)(C)C3CCC2(C)C1C3 (stereo not shown) [Material 933]	K (Log of liquid dish neat product liquid-air partition coefficient greater than or equal to −7)	K (Log of liquid dish neat product liquid-air partition coefficient greater than or equal to −7)	
CCOCCOCCO [Material 579]		K (Log of liquid dish neat product liquid-air partition coefficient greater than or equal to −7)	
CC=C(C)C(=O)OCCC=CCC [Material 274]			K (Log of liquid dish neat product liquid-air partition coefficient greater than or equal to −7)
O=C(O)CCc1ccccc1 [Material 255]		K (Log of liquid dish neat product liquid-air partition coefficient greater than or equal to −7)	
CC(=CCC1CC=C(C)C1(C)C)CO (stereo not shown) [Material 908]	K (Log of liquid dish neat product liquid-air partition coefficient greater than or equal to −7)		
CC12CCC(C(=O)C1=O)C2(C)C (stereo not shown) [Material 587]	K (Log of liquid dish neat product liquid-air partition coefficient greater than or equal to −7)		
C=CCCC(=O)C1=CCCC2(CCCC2)C1 [Material 1038]	K (Log of liquid dish neat product liquid-air partition coefficient greater than or equal to −7)	K (Log of liquid dish neat product liquid-air partition coefficient greater than or equal to −7)	
CCC(C)=CCCC(C)=CC#N [Material 158]			K (Log of liquid dish neat product liquid-air partition coefficient greater than or equal to −7)
CC1CCC(C(C)(C)O)CC2=C1CCC2C (stereo not shown) [Material 292]			K (Log of liquid dish neat product liquid-air partition coefficient greater than or equal to −7)
C=CC1(C)CCC(C(C)(C)O)CC1C(=C)C (stereo not shown) [Material 414]			K (Log of liquid dish neat product liquid-air partition coefficient greater than or equal to −7)
COc1ccc(C(C)=O)cc1 [Material 761]		K (Log of liquid dish neat product liquid-air partition coefficient greater than or equal to −7)	
Cc1cccc(CC(C)(C)CO)c1 [Material 140]			K (Log of liquid dish neat product liquid-air partition coefficient greater than or equal to −7)
CCCCCCCCC=CC#N [Material 827]	K (Log of liquid dish neat product liquid-air partition coefficient greater than or equal to −7)		
CCNC(=O)C1CC(C)CCC1C(C)C (stereo not shown) [Material 57]			K (Log of liquid dish neat product liquid-air partition coefficient greater than or equal to −7)
CCC1=CCCC(C)(C)C12C=CC(C)O2 (stereo not shown) [Material 413]			K (Log of liquid dish neat product liquid-air partition coefficient greater than or equal to −7)

SMILES	Log of liquid dish neat product liquid-air partition coefficient (Comment Code K/L)	Comment Code: Log of liquid dish neat product liquid-air partition coefficient	Log of liquid dish neat product liquid-air partition coefficient (Comment Code K/L) [1]
CCC=C1OC(=O)c2ccccc21 [Material 805]	K (Log of liquid dish neat product liquid-air partition coefficient greater than or equal to −7)		
C=CC(=C)CCCC(C)(C)OC(C)=O [Material 35]			K (Log of liquid dish neat product liquid-air partition coefficient greater than or equal to −7)
C=CC(C)=CCC=C(C)CCC=C(C)C=O [Material 691]	K (Log of liquid dish neat product liquid-air partition coefficient greater than or equal to −7)		
CCCCCCCCCC/C=C\C#N [Material 11]			K (Log of liquid dish neat product liquid-air partition coefficient greater than or equal to −7)
CC(=CCCC1(C)C2CC3C(C2)C31C)CO (stereo not shown) [Material 694]	K (Log of liquid dish neat product liquid-air partition coefficient greater than or equal to −7)	K (Log of liquid dish neat product liquid-air partition coefficient greater than or equal to −7)	
CC(=O)/C=C/C1C(C)CCC(C)C1(C)C (stereo not shown) [Material 71]			K (Log of liquid dish neat product liquid-air partition coefficient greater than or equal to −7)
C=C1C2CCC(C)(C)C1CCC(OC)C2 (stereo not shown) [Material 7]		K (Log of liquid dish neat product liquid-air partition coefficient greater than or equal to −7)	K (Log of liquid dish neat product liquid-air partition coefficient greater than or equal to −7)
C=C1C2CCC(C)(OCC)C1CCC2(C)C (stereo not shown) [Material 606]	K (Log of liquid dish neat product liquid-air partition coefficient greater than or equal to −7)		
CC(C)=C1CCC2=CC(=O)CC(C)C2(C)C1 (stereo not shown) [Material 684]	K (Log of liquid dish neat product liquid-air partition coefficient greater than or equal to −7)	K (Log of liquid dish neat product liquid-air partition coefficient greater than or equal to −7)	
CCC(=O)OC1CC2CC1C1CC=CC21 (stereo not shown) [Material 919]	K (Log of liquid dish neat product liquid-air partition coefficient greater than or equal to −7)	K (Log of liquid dish neat product liquid-air partition coefficient greater than or equal to −7)	
C=CCCCCCCCCCO [Material 870]	K (Log of liquid dish neat product liquid-air partition coefficient greater than or equal to −7)		
CC1(C)CCc2ccc(CCC=O)cc21 [Material 260]		K (Log of liquid dish neat product liquid-air partition coefficient greater than or equal to −7)	K (Log of liquid dish neat product liquid-air partition coefficient greater than or equal to −7)
COC1CCCCCCCCCCC1 [Material 9]			K (Log of liquid dish neat product liquid-air partition coefficient greater than or equal to −7)
CCC(=O)OCC=Cc1ccccc1 [Material 548]			K (Log of liquid dish neat product liquid-air partition coefficient greater than or equal to −7)
C=CCc1cc(OC)c2c(c1)OCO2 [Material 37]			K (Log of liquid dish neat product liquid-air partition coefficient greater than or equal to −7)
c1ccc(Oc2ccccc2)cc1 [Material 428]			K (Log of liquid dish neat product liquid-air partition coefficient greater than or equal to −7)
CC1=CC2C(C(C)C)CCC(C)(O)C2CC1 (stereo not shown) [Material 1046]	K (Log of liquid dish neat product liquid-air partition coefficient greater than or equal to −7)		
CCCCCCCCCC(=O)O [Material 582]	K (Log of liquid dish neat product liquid-air partition coefficient greater than or equal to −7)		
CCC(C)(O)CCc1ccccc1 (stereo not shown) [Material 731]	K (Log of liquid dish neat product liquid-air partition coefficient greater than or equal to −7)		
CC(C)C1CCC(C(C)O)CC1 (stereo not shown) [Material 83]			K (Log of liquid dish neat product liquid-air partition coefficient greater than or equal to −7)
CC1/C=C/CCCCCCCCCCC(=O)C1 (stereo not shown) [Material 80]			K (Log of liquid dish neat product liquid-air partition coefficient greater than or equal to −7)
CCC(C)(O)/C=C/C=C(C)C (stereo not shown) [Material 81]		K (Log of liquid dish neat product liquid-air partition coefficient greater than or equal to −7)	
CNC(=O)C(C)(C(C)C)C(C)C [Material 846]		K (Log of liquid dish neat product liquid-air partition coefficient greater than or equal to −7)	
CC(C=O)Cc1ccc2c(c1)OCO2 (stereo not shown) [Material 288]			K (Log of liquid dish neat product liquid-air partition coefficient greater than or equal to −7)
